The subject of assay [1] is FTC133 cells. The experiment in a line: MTT cell viability assay, FTC133. To be noted: Homo sapiens, FTC-133, 72-hours of exposure, 1% FBS, mean±standard deviation (n=3), read-out: IC50 for reducing viability of FTC133 cells versus DMSO control. It counts as cell-based, Human. The text has this: (§1) Human thyroid cancer BCPAP, TPC1, and FTC133 cell lines were the generous gifts of Drs. Rebecca Schweppe and Bryan Haugen (University of Colorado Denver) (Schweppe et al., The Journal of clinical endocrinology and metabolism 83:4331-4341 (2008)) with permission from the following originating laboratories: BCPAP—Dr. Fabien, Centre Hospitalier Lyon-Sud, France (Fabien et al., Cancer 73:2206-2212 (1994)); TPC1—Dr. Sato, Kanazawa University, Japan (Tanaka et al., Virology 161:62-411 (1987)); and FTC133—Dr. Goretzki, University of Leipzig, Germany (Goretzki et al., Recent Results Cancer Res 118:48-63 (1990)). The obtained cell lines were confirmed for identity by DNA fingerprinting. BCPAP was grown in RPMI 1640 medium (Life Technologies Co., Carlsbad, Calif.) while FTC133 and TPC1 were grown in DMEM (Life Technologies Co.), both supplemented with 10% fetal bovine serum (FBS) and NEAA unless as noted for experiments.
(§2) The effect of OSU-03012 and its derivatives on cell viability was assessed by using the 3-(4,5-dimethylthiazol-2-yl)-2,5-diphenyl-2H-tetrazolium bromide (MTT) assay. Three replicates were performed in each individual experiment, and experiments were repeated at least three separate times. Cells were grown in 96-well plates for 24 hours and were exposed to various concentrations of drugs dissolved in DMSO (final concentration 0.1%) in RPMI 1640 or DMEM containing 1% FBS for 72 hours. 10 μL of 0.5 mg/ml MTT was added to each well and cells were incubated in CO2 at 37° C. for 2 hours. Supernatants were removed from the wells, the reduced MTT dye was solubilized in 100 μL of solution C (12 ml of 1N HCl in 300 mL of isopropanol), and absorbance at 570 nm was determined on a microplate reader.
(§3) We assessed the ability of the compounds to reduce cell viability in vitro by MTT assay after 72 hours of continuous exposure. Results are shown in Table 1 and are depicted as the IC50 vs. simultaneously performed DMSO control.
(§4) ^aThe reported IC50 values are concentrations at which BCPAP, FTC133 and TPC1 cell viability by MTT assays 50% of DMSO control after 72-hours of exposure. Data are presented as mean±standard deviation (n=3). PAK and PDK1 Selectivity In Vivo
Background: Tetrazolium assays rely on reduction of a dye to a coloured formazan, in cell work by metabolically active cells.

Assay [2] relates to TPC1 cells. Description: MTT cell viability assay, TPC1. As to conditions: Homo sapiens, TPC1, 72-hours of exposure, 1% FBS, mean±standard deviation (n=3), read-out: IC50 for reducing viability of TPC1 cells versus DMSO control. It counts as cell-based, Human.
From the text: as §1, §2, §3, §4

Assay [3] deals with Met (Homo sapiens, UniProt P08581). Description: Kinase profiling panel: Met. It counts as biochemical. As to conditions: 5 μM compound; average of triplicate. As to the method:
(§5) To further probe the selectivity of the compounds 4 and 15, they were subjected for kinase profiling service for screening against a panel of other kinases selected based on the kinase tree at 5 μM concentration, at or above the IC50 for the two compounds versus PAK in both in vitro and cell-based assays. […] PAK1 was not available for testing using this system thus it was not possible to compare directly in this assay system.

For assay [4], the target named is PKA (Homo sapiens, UniProt P17612). The experiment in a line: Kinase profiling panel: PKA. It counts as biochemical. As to conditions: 5 μM compound; average of triplicate. As for the experimental part:
as §5

Assay [5] concerns BCPAP cells transfected with constitutively activated PAK1 cDNA. The experiment in a line: Migration rescue experiment with constitutively activated PAK1. It counts as cell-based, Human. To be noted: 1 μM compound, 24 hours, P<0.05. As for the experimental part:
Myc-tagged constitutively activated (CA) PAK1 cDNAs was the generous gift of Dr. Jonathan Chernoff (Fox Chase Cancer Center, Philadelphia, Pa.). Sells et al., J Cell Biol 145:837-849 (1999). pRC/CMV and pcDNA3.1(+) vector were purchased from Life Technologies. BCPAP cells were grown in RPMI containing 10% FBS until 40-50% confluent. They were transfected with CAPAK1 cDNA or a vector control, washed with PBS, trypsinized with 0.05% Trypsin-EDTA 1× (Gibco) for 5-10 min, collected with 10% FBS RPMI, and centrifuged at 300 g for 5 min. Cells were resuspended with 0% FBS RPMI and counted using Countess™ (Invitrogen). Then a volume of 1×10^5 cells suspended in 300 μl of 0% FBS RPMI was placed into Boyden chamber inserts (8 μm pore). The inserts were placed into wells of a 24 well plate filled with 400 μl of 0% FBS RPMI. The plate was incubated at 37° C. 5% CO2 for 1 hour. Then 30 μl (1 μM) of either compound 4 or 15 was added to the inserts and then incubated again for 1 hour. The inserts were transferred into different wells filled with 400 μl of 10% FBS RPMI. After incubation for 24 hours, the cells on either side of the insert membrane were fixed and quantified as above. Experiments were performed in triplicate on three occasions.
Because the compounds are multikinase inhibitors, we next sought to determine if PAK1 inhibition was responsible for some of the biological effects of the compounds. […]

Met, sequence (P08581 25-1390): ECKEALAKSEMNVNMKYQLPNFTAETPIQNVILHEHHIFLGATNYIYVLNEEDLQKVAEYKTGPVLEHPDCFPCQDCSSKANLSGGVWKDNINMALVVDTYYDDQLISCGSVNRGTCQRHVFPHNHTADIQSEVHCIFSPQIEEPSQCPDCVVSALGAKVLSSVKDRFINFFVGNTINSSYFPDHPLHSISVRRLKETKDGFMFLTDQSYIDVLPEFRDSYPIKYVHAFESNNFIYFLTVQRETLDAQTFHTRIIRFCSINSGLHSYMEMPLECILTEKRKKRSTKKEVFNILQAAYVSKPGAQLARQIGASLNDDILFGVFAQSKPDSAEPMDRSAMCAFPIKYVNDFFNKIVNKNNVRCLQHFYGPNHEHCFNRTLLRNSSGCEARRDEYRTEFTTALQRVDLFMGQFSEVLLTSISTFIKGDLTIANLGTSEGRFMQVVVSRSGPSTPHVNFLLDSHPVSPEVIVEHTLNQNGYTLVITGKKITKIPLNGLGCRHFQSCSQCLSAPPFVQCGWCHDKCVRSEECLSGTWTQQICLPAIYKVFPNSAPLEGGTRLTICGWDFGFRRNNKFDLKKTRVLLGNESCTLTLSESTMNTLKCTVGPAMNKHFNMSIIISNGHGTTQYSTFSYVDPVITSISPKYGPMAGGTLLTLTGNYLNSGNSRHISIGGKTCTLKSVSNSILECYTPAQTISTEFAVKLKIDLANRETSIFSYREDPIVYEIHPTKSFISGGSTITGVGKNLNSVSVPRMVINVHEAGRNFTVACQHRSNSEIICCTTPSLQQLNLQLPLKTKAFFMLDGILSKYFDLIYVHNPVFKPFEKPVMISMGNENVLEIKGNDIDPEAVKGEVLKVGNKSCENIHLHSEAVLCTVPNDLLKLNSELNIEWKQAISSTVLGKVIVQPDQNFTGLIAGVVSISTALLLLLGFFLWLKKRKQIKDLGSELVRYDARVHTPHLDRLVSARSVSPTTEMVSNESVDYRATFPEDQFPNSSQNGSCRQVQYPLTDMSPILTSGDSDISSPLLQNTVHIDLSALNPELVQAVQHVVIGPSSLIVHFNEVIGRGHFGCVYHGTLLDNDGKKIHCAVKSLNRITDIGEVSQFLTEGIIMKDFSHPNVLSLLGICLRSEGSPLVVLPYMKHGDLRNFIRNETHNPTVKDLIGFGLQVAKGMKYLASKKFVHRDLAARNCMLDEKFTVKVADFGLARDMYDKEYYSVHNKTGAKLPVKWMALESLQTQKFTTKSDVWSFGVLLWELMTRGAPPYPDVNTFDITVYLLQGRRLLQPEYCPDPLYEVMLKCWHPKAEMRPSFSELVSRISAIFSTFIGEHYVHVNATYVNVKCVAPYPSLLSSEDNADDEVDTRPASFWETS

For `NCCC(=O)Nc1ccc(-n2nc(C(F)(F)F)cc2-c2ccc3ccc4ccccc4c3c2)cc1` [Compound 4, 3-amino-N-(4-(5-(phenanthren-3-yl)-3-(trifluoromethyl)-1H-pyrazol-1-yl)phenyl)-propanamide], the IC50 – broadly, the concentration at which inhibition is half-maximal – in assay [1] was determined as 2680 ± 2080 nM; in assay [2], 1680 ± 320 nM. For the same molecule, the “% activity vs. DMSO, Met” value in assay [3] is reported as 89%. In assay [4], the “% activity vs. DMSO, PKA” value was determined as 110%. For the same molecule, in assay [5], the “Rescue of anti-migratory effect by constitutively activated PAK1” value is “rescued”.
Taken in the same sequence, the figures for `CC(C)NC(=O)c1cc(-c2ccc3ccc4ccccc4c3c2)n(-c2ccc(NC(=O)CN)cc2)n1` [Compound 15, 1-(4-(2-Aminoacetamido)phenyl)-N-isopropyl-5-(phenanthren-3-yl)-1H-pyrazole-3-carboxamide] were 3370 ± 3310 nM, 2660 ± 1050 nM, 77%, 119% and “rescued”.
